Assays:
[1] = biological target: Macrophage-stimulating protein receptor (Homo sapiens) (UniProt Q04912); experiment: Inhibition of Ron at 10 uM by HTRF assay
[2] = biological target: T1, Vascular endothelial growth factor receptor 2 (Homo sapiens, UniProt P35968); experiment: Inhibition of VEGFR2 expressed in HEK293 cells assessed as inhibition of receptor phosphorylation by ELISA; format: cell-based
[3] = biological target: Fibroblast growth factor receptor 1 (Homo sapiens) (UniProt P11362); experiment: Inhibition of FGFR1 at 10 uM by HTRF assay
[4] = biological target: Proto-oncogene tyrosine-protein kinase Src (Homo sapiens) (UniProt P12931); experiment: Inhibition of Src at 10 uM by HTRF assay
Sequence of Proto-oncogene tyrosine-protein kinase Src (Homo sapiens) (P12931 2-536 limits assumed): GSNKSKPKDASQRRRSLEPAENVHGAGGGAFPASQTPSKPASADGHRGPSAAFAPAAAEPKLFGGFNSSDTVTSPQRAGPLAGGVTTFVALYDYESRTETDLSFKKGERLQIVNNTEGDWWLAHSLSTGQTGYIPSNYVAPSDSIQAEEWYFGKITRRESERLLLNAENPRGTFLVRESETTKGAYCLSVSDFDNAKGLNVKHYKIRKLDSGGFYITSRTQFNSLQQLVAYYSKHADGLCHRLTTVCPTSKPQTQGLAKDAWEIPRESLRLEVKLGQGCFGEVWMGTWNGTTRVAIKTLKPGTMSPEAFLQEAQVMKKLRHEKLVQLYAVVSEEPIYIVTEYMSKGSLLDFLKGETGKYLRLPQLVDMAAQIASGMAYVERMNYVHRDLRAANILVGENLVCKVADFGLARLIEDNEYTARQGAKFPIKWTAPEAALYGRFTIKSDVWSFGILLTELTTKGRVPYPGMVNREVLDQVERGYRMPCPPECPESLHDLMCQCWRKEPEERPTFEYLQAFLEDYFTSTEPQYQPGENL

[5] = biological target: Receptor tyrosine-protein kinase erbB-2 (Homo sapiens) (UniProt P04626); experiment: Inhibition of ErbB2 at 10 uM by HTRF assay
[6] = Intrinsic permeability across human Caco-2 cells
[7] = Inhibition of PKA at 10 uM by HTRF assay
[8] = biological target: T2, Aurora kinase A (Homo sapiens) (UniProt O14965); experiment: Inhibition of Aurora A at 10 uM by HTRF assay
T2 sequence (whole entry): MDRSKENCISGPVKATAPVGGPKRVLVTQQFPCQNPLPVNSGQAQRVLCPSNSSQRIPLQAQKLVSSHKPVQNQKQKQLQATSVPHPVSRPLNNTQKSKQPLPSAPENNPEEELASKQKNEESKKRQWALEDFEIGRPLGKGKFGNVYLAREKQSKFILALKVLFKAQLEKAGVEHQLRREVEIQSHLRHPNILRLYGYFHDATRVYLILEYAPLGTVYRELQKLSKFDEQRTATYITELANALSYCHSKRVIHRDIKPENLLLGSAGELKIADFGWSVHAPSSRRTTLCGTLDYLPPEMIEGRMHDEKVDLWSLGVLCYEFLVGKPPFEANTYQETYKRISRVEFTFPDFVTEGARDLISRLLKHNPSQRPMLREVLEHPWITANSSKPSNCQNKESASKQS

[9] = biological target: Receptor-type tyrosine-protein kinase FLT3 (Homo sapiens) (UniProt P36888); experiment: Inhibition of Flt3 at 10 uM by HTRF assay
[10] = biological target: Cyclin-dependent kinase 1 (Homo sapiens) (UniProt P06493); experiment: Inhibition of CDK1 at 10 uM by HTRF assay
[11] = biological target: Cyclin-dependent kinase 2 (Homo sapiens) (UniProt P24941); experiment: Inhibition of CDK2 at 10 uM by HTRF assay
[12] = biological target: Aurora kinase B (Homo sapiens) (UniProt Q96GD4); experiment: Inhibition of Aurora B at 10 uM by HTRF assay
[13] = biological target: Epidermal growth factor receptor (Homo sapiens) (UniProt P00533); experiment: Inhibition of EGFR at 10 uM by HTRF assay
[14] = Inhibition of Bcr-Abl T315 mutant at 10 uM by HTRF assay
[15] = biological target: Glycogen synthase kinase-3 beta (Homo sapiens) (UniProt P49841); experiment: Inhibition of GSK3-beta at 10 uM by HTRF assay
[16] = biological target: Insulin-like growth factor 1 receptor (Homo sapiens) (UniProt P08069); experiment: Inhibition of IGF1R at 10 uM by HTRF assay
[17] = biological target: Hepatocyte growth factor receptor (Homo sapiens) (UniProt P08581); experiment: Inhibition of cMET at 10 uM by HTRF assay
[18] = biological target: T1, Vascular endothelial growth factor receptor 2; experiment: Inhibition of VEGFR2 assessed as blockade of pGAT-biotin phosphorylation in presence of 2 uM ATP by HTRF assay
[19] = biological target: Vascular endothelial growth factor receptor 1 (Homo sapiens, UniProt P17948); experiment: Inhibition of VEGFR1 assessed as blockade of pGAT-biotin phosphorylation in presence of 2 uM ATP by HTRF assay
[20] = biological target: Insulin receptor (Homo sapiens) (UniProt P06213); experiment: Inhibition of InR at 10 uM by HTRF assay
[21] = biological target: Bcr/Abl fusion protein (Homo sapiens) (UniProt P00519+P11274); experiment: Inhibition of bcr-Abl at 10 uM by HTRF assay; format: protein assay
Sequence of Bcr/Abl fusion protein (Homo sapiens) (P00519 whole entry, looked up, the tested form may be a part): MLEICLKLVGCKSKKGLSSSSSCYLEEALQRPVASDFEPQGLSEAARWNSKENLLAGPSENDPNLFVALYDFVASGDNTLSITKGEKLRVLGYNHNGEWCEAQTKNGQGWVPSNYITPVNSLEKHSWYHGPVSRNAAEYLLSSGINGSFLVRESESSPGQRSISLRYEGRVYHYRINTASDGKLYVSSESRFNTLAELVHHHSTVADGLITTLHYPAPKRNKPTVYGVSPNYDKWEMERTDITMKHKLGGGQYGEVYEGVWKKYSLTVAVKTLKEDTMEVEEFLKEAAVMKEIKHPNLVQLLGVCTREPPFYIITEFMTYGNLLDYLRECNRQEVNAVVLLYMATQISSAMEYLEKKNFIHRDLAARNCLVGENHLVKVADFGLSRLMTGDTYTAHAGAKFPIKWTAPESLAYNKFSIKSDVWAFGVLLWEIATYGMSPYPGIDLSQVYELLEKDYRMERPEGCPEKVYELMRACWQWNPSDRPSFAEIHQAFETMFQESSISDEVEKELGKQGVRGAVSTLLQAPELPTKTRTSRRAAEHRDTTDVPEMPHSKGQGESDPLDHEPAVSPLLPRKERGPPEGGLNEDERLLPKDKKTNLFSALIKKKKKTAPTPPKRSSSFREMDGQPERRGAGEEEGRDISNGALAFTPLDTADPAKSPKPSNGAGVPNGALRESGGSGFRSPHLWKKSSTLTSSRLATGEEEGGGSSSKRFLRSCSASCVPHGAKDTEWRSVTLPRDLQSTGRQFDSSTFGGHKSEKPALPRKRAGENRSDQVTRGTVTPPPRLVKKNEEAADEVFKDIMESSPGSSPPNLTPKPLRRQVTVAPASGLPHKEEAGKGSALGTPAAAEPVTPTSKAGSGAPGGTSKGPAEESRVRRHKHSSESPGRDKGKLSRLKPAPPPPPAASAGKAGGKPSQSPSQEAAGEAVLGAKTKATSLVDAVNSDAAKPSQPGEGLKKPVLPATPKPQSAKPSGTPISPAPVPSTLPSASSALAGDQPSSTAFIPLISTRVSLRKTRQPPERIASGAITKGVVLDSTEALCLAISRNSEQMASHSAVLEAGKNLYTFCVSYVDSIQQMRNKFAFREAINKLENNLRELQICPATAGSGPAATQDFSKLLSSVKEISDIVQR
Sequence of Bcr/Abl fusion protein (Homo sapiens) (P11274 whole entry, looked up, the tested form may be a part): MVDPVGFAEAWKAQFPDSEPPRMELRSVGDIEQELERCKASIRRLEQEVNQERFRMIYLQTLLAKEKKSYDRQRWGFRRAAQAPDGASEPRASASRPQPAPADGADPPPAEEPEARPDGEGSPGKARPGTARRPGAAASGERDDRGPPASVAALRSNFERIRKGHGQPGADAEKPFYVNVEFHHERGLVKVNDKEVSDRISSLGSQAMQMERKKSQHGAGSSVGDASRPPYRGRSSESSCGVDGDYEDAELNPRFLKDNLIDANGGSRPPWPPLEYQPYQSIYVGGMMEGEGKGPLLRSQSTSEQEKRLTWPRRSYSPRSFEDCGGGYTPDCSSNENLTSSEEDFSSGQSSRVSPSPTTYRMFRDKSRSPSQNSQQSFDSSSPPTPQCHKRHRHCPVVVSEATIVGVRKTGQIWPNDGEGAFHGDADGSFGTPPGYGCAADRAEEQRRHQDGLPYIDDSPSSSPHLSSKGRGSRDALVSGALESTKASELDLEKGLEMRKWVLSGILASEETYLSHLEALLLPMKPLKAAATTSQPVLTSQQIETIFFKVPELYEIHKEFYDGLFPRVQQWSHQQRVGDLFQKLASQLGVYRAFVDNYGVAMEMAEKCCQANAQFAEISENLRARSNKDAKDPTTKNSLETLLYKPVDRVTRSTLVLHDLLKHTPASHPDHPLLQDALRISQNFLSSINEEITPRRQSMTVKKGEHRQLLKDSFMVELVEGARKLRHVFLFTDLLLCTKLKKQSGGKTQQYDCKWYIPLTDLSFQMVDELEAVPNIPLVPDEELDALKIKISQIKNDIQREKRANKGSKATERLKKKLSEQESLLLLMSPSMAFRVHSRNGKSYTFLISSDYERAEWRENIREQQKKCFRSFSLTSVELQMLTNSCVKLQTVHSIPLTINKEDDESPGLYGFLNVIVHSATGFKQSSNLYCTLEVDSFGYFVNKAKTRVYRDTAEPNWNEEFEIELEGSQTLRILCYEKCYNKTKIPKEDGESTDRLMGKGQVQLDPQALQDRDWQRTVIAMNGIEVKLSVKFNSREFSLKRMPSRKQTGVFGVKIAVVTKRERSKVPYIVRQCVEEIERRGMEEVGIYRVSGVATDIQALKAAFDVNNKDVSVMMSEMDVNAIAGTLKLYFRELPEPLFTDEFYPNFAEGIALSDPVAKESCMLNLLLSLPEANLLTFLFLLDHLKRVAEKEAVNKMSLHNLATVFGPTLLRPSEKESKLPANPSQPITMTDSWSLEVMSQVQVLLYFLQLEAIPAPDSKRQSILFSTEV

[22] = biological target: Serine/threonine-protein kinase PLK1 (Homo sapiens) (UniProt P53350); experiment: Inhibition of Plk1 at 10 uM by HTRF assay
Sequence of Serine/threonine-protein kinase PLK1 (Homo sapiens) (P53350 whole entry): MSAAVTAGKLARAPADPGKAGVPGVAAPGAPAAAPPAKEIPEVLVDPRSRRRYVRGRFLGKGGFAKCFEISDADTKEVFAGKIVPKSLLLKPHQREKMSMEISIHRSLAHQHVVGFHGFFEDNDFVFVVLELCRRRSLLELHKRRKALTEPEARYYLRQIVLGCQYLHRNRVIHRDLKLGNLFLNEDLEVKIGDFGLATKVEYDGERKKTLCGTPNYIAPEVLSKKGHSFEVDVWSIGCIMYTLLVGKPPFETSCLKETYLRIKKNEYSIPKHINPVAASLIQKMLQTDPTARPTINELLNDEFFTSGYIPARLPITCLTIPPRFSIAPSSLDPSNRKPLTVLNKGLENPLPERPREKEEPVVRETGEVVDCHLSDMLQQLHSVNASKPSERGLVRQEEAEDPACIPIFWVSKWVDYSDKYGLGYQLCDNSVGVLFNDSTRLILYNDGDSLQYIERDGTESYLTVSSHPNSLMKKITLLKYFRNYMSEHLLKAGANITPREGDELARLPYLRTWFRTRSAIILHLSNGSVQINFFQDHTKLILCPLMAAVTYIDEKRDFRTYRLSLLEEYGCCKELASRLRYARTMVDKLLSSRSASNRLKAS

T1 sequence (P35968 whole entry): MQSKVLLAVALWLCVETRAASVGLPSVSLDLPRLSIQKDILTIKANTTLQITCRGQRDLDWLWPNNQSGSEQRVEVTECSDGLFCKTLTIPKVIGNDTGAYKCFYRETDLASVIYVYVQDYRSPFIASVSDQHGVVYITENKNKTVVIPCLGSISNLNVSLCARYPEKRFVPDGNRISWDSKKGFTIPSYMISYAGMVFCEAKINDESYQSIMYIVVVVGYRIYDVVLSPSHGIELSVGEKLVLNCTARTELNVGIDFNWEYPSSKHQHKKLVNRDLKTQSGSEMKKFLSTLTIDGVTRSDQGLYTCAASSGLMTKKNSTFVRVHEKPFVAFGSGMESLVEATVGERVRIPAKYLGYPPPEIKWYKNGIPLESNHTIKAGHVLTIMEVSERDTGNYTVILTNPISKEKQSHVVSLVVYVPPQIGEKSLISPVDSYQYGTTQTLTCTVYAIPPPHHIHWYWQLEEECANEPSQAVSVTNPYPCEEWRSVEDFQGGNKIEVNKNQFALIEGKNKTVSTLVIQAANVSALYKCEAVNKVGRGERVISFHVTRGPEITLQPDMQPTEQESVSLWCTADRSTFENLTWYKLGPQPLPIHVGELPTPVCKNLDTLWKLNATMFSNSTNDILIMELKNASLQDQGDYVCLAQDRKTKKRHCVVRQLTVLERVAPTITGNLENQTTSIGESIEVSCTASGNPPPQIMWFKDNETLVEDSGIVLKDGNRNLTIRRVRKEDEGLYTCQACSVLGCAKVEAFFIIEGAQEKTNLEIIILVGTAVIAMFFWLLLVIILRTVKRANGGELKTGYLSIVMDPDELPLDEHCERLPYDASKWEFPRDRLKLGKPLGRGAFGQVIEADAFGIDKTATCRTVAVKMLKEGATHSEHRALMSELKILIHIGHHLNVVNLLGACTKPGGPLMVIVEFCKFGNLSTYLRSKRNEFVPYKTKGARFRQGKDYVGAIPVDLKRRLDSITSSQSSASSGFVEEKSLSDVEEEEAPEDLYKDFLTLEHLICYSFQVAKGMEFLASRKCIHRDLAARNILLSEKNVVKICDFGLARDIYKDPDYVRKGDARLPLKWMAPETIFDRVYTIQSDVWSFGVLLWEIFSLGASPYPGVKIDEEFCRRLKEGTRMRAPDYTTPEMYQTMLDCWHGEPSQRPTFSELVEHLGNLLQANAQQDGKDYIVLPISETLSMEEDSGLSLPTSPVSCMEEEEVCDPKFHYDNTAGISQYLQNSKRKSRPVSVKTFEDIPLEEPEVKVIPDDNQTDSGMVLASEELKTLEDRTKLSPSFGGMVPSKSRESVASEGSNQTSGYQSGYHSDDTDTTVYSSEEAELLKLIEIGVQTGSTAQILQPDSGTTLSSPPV

O=C(Nc1cccc(OC(F)(F)F)c1)c1nscc1NCc1ccncc1
< 30%: inhibition [1] | inhibition [3] | inhibition [4] | inhibition [5] | inhibition [7] | inhibition [8] | inhibition [9] | inhibition [10] | inhibition [11] | inhibition [12] | inhibition [13] | inhibition [14] | inhibition [15] | inhibition [16] | inhibition [17] | inhibition [20] | inhibition [21] | inhibition [22]
41 nM: IC50 [2]
33 nM: IC50 [18]
7.93 ×10⁻⁶ cm/s: Papp [6]
260 nM: IC50 [19]

CC(C)(C)c1cccc(NC(=O)c2nscc2NCc2ccncc2)c1
5.58 ×10⁻⁶ cm/s: Papp [6]
< 30%: inhibition [1] | inhibition [3] | inhibition [4] | inhibition [5] | inhibition [7] | inhibition [9] | inhibition [10] | inhibition [11] | inhibition [13] | inhibition [14] | inhibition [15] | inhibition [16] | inhibition [17] | inhibition [20] | inhibition [21]

O=C(Nc1cccc(C(F)(F)F)c1)c1nscc1NCc1ccnc2ccccc12
2.72 ×10⁻⁶ cm/s: Papp [6]
< 30%: inhibition [1] | inhibition [3] | inhibition [4] | inhibition [5] | inhibition [7] | inhibition [9] | inhibition [10] | inhibition [11] | inhibition [13] | inhibition [14] | inhibition [15] | inhibition [16] | inhibition [17] | inhibition [20] | inhibition [21]

O=C(Nc1cccc(Br)c1)c1nscc1NCc1ccc2ccccc2n1
> 10000 nM: IC50 [2] | IC50 [18] | IC50 [19]
< 30%: inhibition [1] | inhibition [3] | inhibition [4] | inhibition [5] | inhibition [7] | inhibition [8] | inhibition [9] | inhibition [10] | inhibition [11] | inhibition [12] | inhibition [13] | inhibition [14] | inhibition [15] | inhibition [16] | inhibition [17] | inhibition [20] | inhibition [21] | inhibition [22]

O=C(Nc1cccc(C(F)(F)F)c1)c1nscc1NCc1ccccn1
< 30%: inhibition [1] | inhibition [3] | inhibition [4] | inhibition [5] | inhibition [7] | inhibition [8] | inhibition [9] | inhibition [10] | inhibition [11] | inhibition [12] | inhibition [13] | inhibition [14] | inhibition [15] | inhibition [16] | inhibition [17] | inhibition [20] | inhibition [21] | inhibition [22]
> 10000 nM: IC50 [2] | IC50 [18] | IC50 [19]

O=C(Nc1ccc(C(F)(F)F)c(Cl)c1)c1nscc1NCc1ccncc1
890 nM: IC50 [18]
2050 nM: IC50 [2]
1800 nM: IC50 [19]
< 30%: inhibition [1] | inhibition [3] | inhibition [4] | inhibition [5] | inhibition [7] | inhibition [8] | inhibition [9] | inhibition [10] | inhibition [11] | inhibition [12] | inhibition [13] | inhibition [14] | inhibition [15] | inhibition [16] | inhibition [17] | inhibition [20] | inhibition [21] | inhibition [22]

O=C(Nc1ccc2ccccc2n1)c1nscc1NCc1ccncc1
440 nM: IC50 [18]
< 30%: inhibition [1] | inhibition [3] | inhibition [4] | inhibition [5] | inhibition [7] | inhibition [8] | inhibition [9] | inhibition [10] | inhibition [11] | inhibition [12] | inhibition [13] | inhibition [14] | inhibition [15] | inhibition [16] | inhibition [17] | inhibition [20] | inhibition [21] | inhibition [22]
380 nM: IC50 [19]
770 nM: IC50 [2]

O=C(Nc1ccc(Cl)c(Cl)c1)c1nscc1NCc1ccncc1
670 nM: IC50 [18]
750 nM: IC50 [19]
< 30%: inhibition [1] | inhibition [3] | inhibition [4] | inhibition [5] | inhibition [7] | inhibition [8] | inhibition [9] | inhibition [10] | inhibition [11] | inhibition [12] | inhibition [13] | inhibition [14] | inhibition [15] | inhibition [16] | inhibition [17] | inhibition [20] | inhibition [21] | inhibition [22]
1110 nM: IC50 [2]

O=C(Nc1cccc(Br)c1)c1nscc1NCCc1ccc2c(c1)OCO2
> 10000 nM: IC50 [2] | IC50 [18] | IC50 [19]
< 30%: inhibition [1] | inhibition [3] | inhibition [4] | inhibition [5] | inhibition [7] | inhibition [8] | inhibition [9] | inhibition [10] | inhibition [11] | inhibition [12] | inhibition [13] | inhibition [14] | inhibition [15] | inhibition [16] | inhibition [17] | inhibition [20] | inhibition [21] | inhibition [22]

O=C(Nc1cccc(C(F)(F)F)c1)c1nscc1NCCc1ccc2c(c1)OCO2
< 30%: inhibition [1] | inhibition [3] | inhibition [4] | inhibition [5] | inhibition [7] | inhibition [8] | inhibition [9] | inhibition [10] | inhibition [11] | inhibition [12] | inhibition [13] | inhibition [14] | inhibition [15] | inhibition [16] | inhibition [17] | inhibition [20] | inhibition [21] | inhibition [22]
> 10000 nM: IC50 [2] | IC50 [18] | IC50 [19]

Cc1ccc(NC(=O)c2nscc2NCc2ccncc2)cc1C(F)(F)F
190 nM: IC50 [19]
< 30%: inhibition [1] | inhibition [3] | inhibition [4] | inhibition [5] | inhibition [7] | inhibition [8] | inhibition [9] | inhibition [10] | inhibition [11] | inhibition [12] | inhibition [13] | inhibition [14] | inhibition [15] | inhibition [16] | inhibition [17] | inhibition [20] | inhibition [21] | inhibition [22]
5.9 ×10⁻⁶ cm/s: Papp [6]
43 nM: IC50 [18]
56 nM: IC50 [2]

O=C(Nc1cccc(Br)c1)c1nscc1NCc1ccncc1
210 nM: IC50 [2]
< 30%: inhibition [1] | inhibition [3] | inhibition [4] | inhibition [5] | inhibition [7] | inhibition [8] | inhibition [9] | inhibition [10] | inhibition [11] | inhibition [12] | inhibition [13] | inhibition [14] | inhibition [15] | inhibition [16] | inhibition [17] | inhibition [20] | inhibition [21] | inhibition [22]
55 nM: IC50 [19]
27 nM: IC50 [18]

O=C(Nc1cccc(Br)c1)c1nscc1NCc1ccnc2ccccc12
3.58 ×10⁻⁶ cm/s: Papp [6]
< 30%: inhibition [1] | inhibition [3] | inhibition [4] | inhibition [5] | inhibition [7] | inhibition [9] | inhibition [10] | inhibition [11] | inhibition [13] | inhibition [14] | inhibition [15] | inhibition [16] | inhibition [17] | inhibition [20] | inhibition [21]
